Assay results as given in PubChem BioAssay AID1996.
Values after ≈ are worked out from the molar mass of the structure shown.

Conditions: buffer; pH 7.4; 200.0 µM

Compound	solubility kinetic
CC1=C(C)CC(C(=O)NC(C)CCc2ccccc2)C(C(=O)O)C1 (stereo unspecified)	> 49.4 µg/mL
CC1CN(CC(=O)Nc2ccc(Br)cn2)CC(C)O1 (stereo unspecified)	> 49.2 µg/mL
COc1ccc(Nc2nc(N3CCOCC3)nc(N3CCOCC3)n2)cc1	1.4 µg/mL (≈ 3.76 µM)
O=C1NC(=O)N(CC2CCCO2)C(=O)/C1=C/c1cccs1 (stereo unspecified)	> 46 µg/mL
COc1ccccc1C1C([N+](=O)[O-])=C(N)Oc2c1c(=O)oc1ccccc21 (stereo unspecified)	2.2 µg/mL (≈ 6.01 µM)
CCC(=O)N(Cc1cc(=O)[nH]c2ccccc12)c1ccc(OC)cc1	47.1 µg/mL (≈ 140 µM)
Cc1cc(=O)c2cc(NC(=O)c3ccccc3Cl)ccc2[nH]1	9.4 µg/mL (≈ 30.1 µM)
CC(OC(=O)c1ccccc1O)C(=O)Nc1cccc(Cl)c1 (stereo unspecified)	2 µg/mL (≈ 6.26 µM)
CN1C(=O)C(=O)/C(=C(/O)c2ccccc2)C1c1ccc(Br)cc1 (stereo unspecified)	> 55.8 µg/mL
CSCc1ccc(C(=O)OCc2nc3ccccc3s2)o1	13.3 µg/mL (≈ 41.6 µM)
C/C(=N\O)C(C)(C)Nc1cccc(Br)c1	37 µg/mL (≈ 136 µM)
Clc1ncc(CN2CCN(c3ccccc3)CC2)s1	40.9 µg/mL (≈ 139 µM)
Fc1cc(Cl)ccc1NC(=S)NCCN1CCOCC1	> 47.7 µg/mL
CCOC(=O)c1nc(-c2ccccc2)sc1C(C)=O	35.9 µg/mL (≈ 130 µM)
CN/C(=C/[N+](=O)[O-])NCCSCc1ccc(CN(C)C)o1.Cl	52.4 µg/mL
Cc1nc(CN(C)Cc2nc(Cc3ccccc3Cl)no2)cs1	44.3 µg/mL (≈ 127 µM)
CC1CCN(C(=O)COC(=O)c2ccc3ccccc3n2)CC1	> 46.9 µg/mL
COc1cc(C(=S)N2CCOCC2)cc(OC)c1O	> 42.5 µg/mL
Cc1ccccc1CC(=O)NC1CCCc2ccccc21 (stereo unspecified)	2.7 µg/mL (≈ 9.66 µM)
COc1ccc2[nH]c3c(c2c1)CC(C)NC3=O (stereo unspecified)	33.3 µg/mL (≈ 145 µM)
Cn1cccc1C(=O)OCc1ccc(F)cc1	< 0.5 µg/mL

Compound	solubility kinetic
Cc1oncc1-c1csc(-c2ccccc2Cl)n1	0.6 µg/mL (≈ 2.17 µM)
CCOc1ccccc1N1CN(C2CCCCC2)CNC1=S	> 47.9 µg/mL
COc1ccc(CNc2ccc(N3CCOCC3)cc2)cc1	40.9 µg/mL (≈ 137 µM)
COC(=O)CNC(=O)COC(=O)c1ccc(Cl)nc1	> 43 µg/mL
O=S(=O)(c1ccc(Cl)nc1)N1CCCCC1	> 39.1 µg/mL
COc1ccc2nccnc2c1[N+](=O)[O-]	> 30.8 µg/mL
NC(=O)c1ccc(OCC(=O)N2CCNC2=O)cc1	> 39.5 µg/mL
C=CCn1c(O)c(C(CC)=NCC2CCCO2)c(=O)[nH]c1=O (stereo unspecified)	> 46.1 µg/mL
Cc1ccccc1N=C1NC(=O)C(CO)(CO)S1	> 39.9 µg/mL
CCn1c(SCc2ccccc2)nc2cc(OC)c(OC)cc2c1=O	< 0.4 µg/mL
CC(=O)N1CCN(C(=O)CNC(=O)c2cccs2)CC1	> 44.3 µg/mL
Cl.Clc1ccc2[nH]c3c(c2c1)CCNC3	32.4 µg/mL
CCCC(C(=O)Nc1ccncc1)c1ccccc1 (stereo unspecified)	> 38.1 µg/mL
CCCC(=O)Nc1ccc(S(=O)(=O)Nc2cc(OC)ncn2)cc1	> 52.6 µg/mL
CCOc1ccc(C(=O)OC(C)CN2CCN(C)CC2)cc1.Cl (stereo unspecified)	> 51.4 µg/mL
COc1ccc(CCNC(=O)/C=C/c2ccco2)cc1OC	> 45.2 µg/mL
CC(=O)Nc1ccc(S(=O)(=O)NC2CCS(=O)(=O)C2)cc1Cl (stereo unspecified)	23.8 µg/mL (≈ 64.9 µM)
O=[N+]([O-])c1ccc(/C=C/c2ccc3cccc(O)c3n2)cc1	< 0.3 µg/mL
Cc1cc(C(=O)NCc2ccco2)c2ccccc2n1	> 39.9 µg/mL
CC1CCN(CCC(=O)Nc2ccccc2)CC1	29.5 µg/mL (≈ 120 µM)
O=C(CSc1nc2ncccc2[nH]1)Nc1ccc2c(c1)OCO2	> 49.3 µg/mL

Compound	solubility kinetic
Cl.O=C(CN1CCCCC1)c1ccc(F)cc1	> 38.7 µg/mL
O=c1ccc(C(F)(F)F)cn1Cc1cc(=O)n2ccsc2n1	44.2 µg/mL (≈ 135 µM)
COc1ccc(C(=O)OC2CC3CCC(C2)[N+]3(C)[O-])cc1OC (stereo unspecified)	47.8 µg/mL (≈ 149 µM)
CC(=O)c1cccc(NC(=O)CO/N=C2/CCCc3nonc32)c1	45.7 µg/mL (≈ 139 µM)
CN(C1CCCCC1)S(=O)(=O)c1cn(C)c(=O)n(C)c1=O	> 47.3 µg/mL
O=C(Nc1ccc(OC(F)F)c(Cl)c1)c1ccccn1	1.4 µg/mL (≈ 4.69 µM)
O=[N+]([O-])c1ccc(SCCc2cc[nH+]cc2)cc1.[Cl-]	36.5 µg/mL
O=C(CNC(=O)c1ccc(Br)o1)NCCc1ccc(F)cc1	39.8 µg/mL (≈ 108 µM)
Clc1ccc(CSC(Cn2ccnc2)c2ccc(Cl)cc2Cl)cc1.O=[N+]([O-])O (stereo unspecified)	48.7 µg/mL
CC1(c2cccc(Br)c2)NC(=O)NC1=O (stereo unspecified)	> 40.4 µg/mL
O=C(CCSCc1ccccc1F)NCc1cccnc1	> 45.7 µg/mL
O=S(=O)(c1ccccc1)N(CC(O)CN1CCCC1)c1ccccc1 (stereo unspecified)	50 µg/mL (≈ 139 µM)
CC(C)N(C)CCOC(=O)C1COc2ccccc2O1.Cl (stereo unspecified)	> 47.4 µg/mL
CN1C(=O)C(=Cc2ccc(N3CCCCCC3)cc2)C(=O)N(C)C1=O	7 µg/mL (≈ 20.5 µM)
Cc1ccccc1OCc1ccc(C(=O)N2CC(C)OC(C)C2)o1 (stereo unspecified)	47.8 µg/mL (≈ 145 µM)
CCN(Cc1nc(-c2ccc(OC)cc2)no1)C(=O)c1ccoc1C	41.1 µg/mL (≈ 120 µM)
O=[N+]([O-])c1ccc2ccn(C3OCC(O)C(O)C3O)c2c1 (stereo unspecified)	> 44.1 µg/mL
COc1ccc(NC(=O)COC(=O)CCc2ccccc2)c(OC)c1	5.2 µg/mL (≈ 15.1 µM)
C=CCNc1nc(C(=O)OCC(=O)Nc2ccccc2C(F)(F)F)cs1	26.9 µg/mL (≈ 69.8 µM)
